Columns and labels:
Assay type in all cases: cell-based, murine
Raw 264.7 macrophages [1] = assay: LPS-induced TNF-α release from macrophages with or without polymyxin B (ELISA); conditions: 12 h
Description: (§1) Polymyxin B preparation: Polymyxin B was prepared fresh before each use and added to cell cultures at a concentration of 10 μg/ml.
Raw264.7 macrophage cell culture experiments: The murine monocyte/macrophage cell line Raw 264.7 was cultured in DMEM containing 10% (v/v) FBS (5% CO2, 37° C.). Cells were plated in 24-well tissue culture plates at 1×10^5 cells/well in 1 ml of media with serum and allowed to adhere for 24 hours. The media was then replaced with 1 ml of media containing one of four conditions: 1) media alone; 2) 10 μg/ml of polymyxin B; 3) 500 pg/ml of LPS (E. coli 055:B5, Sigma); 4) 500 pg/ml LPS and 10 μg/ml polymyxin B. TNF-α release was measured at 12 h after incubation using ELISA. Each group was plated in triplicate and the experiment was repeated two times. Data were analyzed by ANOVA. A p-value <0.05 was considered significant.

Raw 264.7 macrophages [2] = assay: PMMA particle-induced TNF-α release from macrophages with or without polymyxin B (ELISA); conditions: 0.30% PMMA particles plus 10 μg/ml polymyxin B
Description: (§2) Preparation of particles: PMMA particles were washed 5× with 70% ethanol and incubated overnight with shaking at 4° C. The particles were then washed 3× with DPBS and resuspended to a concentration of 16% v/v. The particles were free of endotoxin using a high-sensitivity Limulus amoebocyte lysate assay (BioWhittaker).
as §1
Quantification of TNF-α release with wear debris particles: Macrophages were cultured as above. The media was then replaced with 1 ml of media containing one of three conditions: 1) media alone; 2) PMMA particles at a dose of 0.30% v/v; 3) 0.30% PMMA particles plus 10 μg/ml of polymyxin B. TNF-α levels were measured at 1, 4, and 12 hours post challenge.

Raw 264.7 macrophages [3] = assay: PMMA particle-induced TNF-α release from macrophages preincubated with MyD88 inhibitory peptide or control peptide (ELISA); conditions: 100 μM peptide, 24 h preincubation, PMMA particles 0.30% v/v, p<0.01
Description: MyD88 inhibitory peptide experiments: The murine monocyte/macrophage cell line Raw 264.7 was cultured in DMEM containing 10% (v/v) FBS (5% CO2, 37° C.). Cells were plated in 24-well tissue culture plates at 1×10^5 cells/well in 1 ml of media with serum and allowed to adhere for 24 hours. […] Following the preincubation period in each group, PMMA particles (Polysciences, 1-10 μm) were added at a dose of 0.30% v/v. Each group was plated in triplicate and the experiment was repeated three times.
Quantification of TNF-α release: Macrophages were exposed to PMMA particles and samples from the culture media were collected at 1, 4, and 12 hours post challenge. TNF-α levels were quantified using ELISA kits. Data were analyzed by ANOVA.
as §2

Row | Substance | TNF-α levels (Raw 264.7 macrophages [1]; 500 pg/ml LPS plus 10 μg/ml polymyxin B) | TNF-α release compared to macrophages alone (Raw 264.7 macrophages [1]; 10 μg/ml polymyxin B alone, no LPS) | effect on particle-induced TNF-α release (Raw 264.7 macrophages [2]; 4 h) | decrease of particle-induced TNF-α release (Raw 264.7 macrophages [2]; 12 h, non-significant) | effect on particle-induced TNF-α release (Raw 264.7 macrophages [2]; overall statement) | decrease of particle-induced TNF-α release (Raw 264.7 macrophages [3]; 4 h post challenge) | decrease of particle-induced TNF-α release (Raw 264.7 macrophages [3]; 12 h post challenge)
1 | Polymyxin B | 1120 pg/mL | no significant difference | did not alter | 25% | no significant effect |  | 
2 | MyD88 inhibitory peptide: MyD88 homodimerization inhibitory peptide (Imgenex), which binds the MyD88 monomer, blocking MyD88 activation; possibly DRQIKIWFQNRRMKWKKRDVLPGT of b57 |  |  |  |  |  | 63% | 32%
